{
  "source": "patent US10201546B2",
  "about": "“Quinolinyl modulators of RORγt” (Janssen Pharmaceutica NV, priority 2013, dated 2019)",
  "key": {"[1]": {"biological_target": "human RORγt ligand binding domain (RORγt LBD) (Homo sapiens (Human), UniProt P51449)", "sequence (P51449 other isoform, or with tags, fused parts or gaps)": "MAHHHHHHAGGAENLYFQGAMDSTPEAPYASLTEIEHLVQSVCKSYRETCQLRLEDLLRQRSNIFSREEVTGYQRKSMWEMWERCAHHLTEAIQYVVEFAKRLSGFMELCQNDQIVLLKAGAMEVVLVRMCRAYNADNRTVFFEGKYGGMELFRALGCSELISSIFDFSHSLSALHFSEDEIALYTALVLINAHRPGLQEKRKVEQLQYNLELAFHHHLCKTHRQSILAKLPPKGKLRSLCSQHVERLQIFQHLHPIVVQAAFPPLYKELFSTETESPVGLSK", "assay": "RORγt ThermoFluor assay (thermal shift, binding affinity Kd)"}, "[2]": {"biological_target": "human RORγt LBD fused to the DNA binding domain of the GAL4 protein (Homo sapiens (Human), UniProt P51449)", "sequence (P51449 258-518)": "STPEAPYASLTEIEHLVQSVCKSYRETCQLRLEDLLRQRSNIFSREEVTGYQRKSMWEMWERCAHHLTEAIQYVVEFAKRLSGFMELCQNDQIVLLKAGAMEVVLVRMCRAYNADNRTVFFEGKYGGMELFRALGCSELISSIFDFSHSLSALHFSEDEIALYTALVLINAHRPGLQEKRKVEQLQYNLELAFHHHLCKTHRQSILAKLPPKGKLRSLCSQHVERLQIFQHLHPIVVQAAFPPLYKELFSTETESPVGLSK", "assay": "RORγt (LBD) reporter assay in HEK293T cells", "format": "cell-based", "set-up": "RORγt (LBD) Reporter Assay, % inhibition: dose or concentration left out as unconfirmed", "details": "for inhibition at 6 µM: HEK-293T, read-out: RORγt (LBD) Reporter Assay, % inhibition @ 6 μM, @ 6 μM", "source_text": "A reporter assay was used to test functional activity of RORγt modulatory compounds on transcriptional activation driven by the RORγt LBD. Cells used in the assay were co-transfected with two constructs. The first construct, pBIND-RORγt LBD, contained the wild type human RORγt LBD fused to the DNA binding domain of the GAL4 protein. The second construct, pGL4.31 (Promega Cat no. C935A), contained multiple GAL4 responsive DNA elements upstream of firefly luciferase.\nThe pBIND vector contains the GAL4 DNA Binding Domain (GAL4 DBD) and the renilla luciferase gene under control of the SV40 promoter. Renilla luciferase expression serves as a control for transfection efficiency and cell viability.\nThe reporter assay was performed by transiently transfecting HEK293T cells with 5 μg of pBIND-RORγt LBD or pBIND-RORγt LBD-AF2 and 5 μg pGL4.31 (Promega Cat no. C935A) using Fugene 6 (Invitrogen Cat no. E2691) at a 1:6 ratio of DNA:Fugene 6 in a T-75 flask in which cells were at least 80% confluent. Twenty four hours after bulk transfection, cells were plated into 96-well plates at 50,000 cells/well in phenol-red free DMEM containing 5% Lipid Reduced FCS and Pen/Strep. Six hours after plating, cells were treated with compounds for 24 hours. Media was removed and cells were lysed with 50 μL 1× Glo Lysis Buffer (Promega). Dual Glo Luciferase Reagent (50 μL/well) was then added and firefly luciferase luminescence was read on an Envision after a ten minute incubation. Finally, Stop and Glo reagent (50 L/well) was added and renilla luciferase luminescence was read on an Envision after a ten minute incubation. To calculate the effect of compounds on RORγt activity, the ratio of firefly to renilla luciferase was determined and plotted against compound concentration. Agonist compounds increase RORγt-driven luciferase expression, and antagonist or inverse agonist compounds decrease luciferase expression."}, "[3]": {"details": "read-out: ThermoFluor Assay, Kd"}, "[4]": {"details": "read-out: ThermoFluor ® Assay, Kd"}},
  "note": "Read-outs that look alike come from different tables or passages of the source.",
  "data": [
    {"smiles": "COc1nc2ccc(C(O)(c3cnc(C)n3C)c3cnc(C)n3C)cc2c(Cl)c1OCC1CCCN1C", "note": "(centres unmarked) [Example 52, {4-Chloro-2-methoxy-3-[(1-methylpyrrolidin-2-yl)methoxy]quinolin-6-yl}[bis(1,2-dimethyl-1H-imidazol-5-yl)]methanol]", "values": [
      {"measurement": "Kd", "setting": "[1]; [3]", "value": 2900, "unit": "nM"}
    ]},
    {"smiles": "COc1nc2ccc(C(O)(c3cnc(C)n3C)c3cnc(C)n3C)cc2c(Cl)c1CNC(=O)CCC(F)(F)F", "note": "[Example 186, N-((6-(Bis(1,2-dimethyl-1H-imidazol-5-yl)(hydroxy)methyl)-4-chloro-2-methoxyquinolin-3-yl)methyl)-4,4,4-trifluorobutanamide]", "values": [
      {"measurement": "Kd", "setting": "[1]; [4]", "value": 590, "unit": "nM"}
    ]},
    {"smiles": "COc1nc2ccc(C(O)(c3ccc(C)nc3C)c3cnnn3C)cc2c(Cl)c1C(=O)N1CCCC1", "note": "(centres unmarked) [Example 151, [4-Chloro-2-methoxy-3-(pyrrolidin-1-ylcarbonyl)quinolin-6-yl](2,6-dimethylpyridin-3-yl)(1-methyl-1H-1,2,3-triazol-5-yl)methanol]", "values": [
      {"measurement": "Kd", "setting": "[1]; [4]", "value": 5100, "unit": "nM"}
    ]},
    {"smiles": "COc1nc2ccc(C(O)(c3ccc(C(F)(F)F)nc3)c3cncn3C)cc2c(C#N)c1CN1CCC(C(F)(F)F)CC1", "note": "(single isomer, unassigned) [Example 191b, 6-(Hydroxy(1-methyl-1H-imidazol-5-yl)(6-(trifluoromethyl)pyridin-3-yl)methyl)-2-methoxy-3-((4-(trifluoromethyl)piperidin-1-yl)methyl)quinoline-4-carbonitrile]", "values": [
      {"measurement": "Kd", "setting": "[1]; [4]", "value": 98, "unit": "nM"}
    ]},
    {"smiles": "COc1nc2ccc(C(O)(c3cnc(C)n3C)c3cnc(C)n3C)cc2c(Cl)c1CNC(=O)CC(F)(F)F", "note": "[Example 185, N-((6-(Bis(1,2-dimethyl-1H-imidazol-5-yl)(hydroxy)methyl)-4-chloro-2-methoxyquinolin-3-yl)methyl)-3,3,3-trifluoropropanamide]", "values": [
      {"measurement": "Kd", "setting": "[1]; [4]", "value": 770, "unit": "nM"}
    ]},
    {"smiles": "COc1nc2ccc(C(O)(c3ccc(C)nc3C)c3cnnn3C)cc2c(Cl)c1CC1CCS(=O)(=O)CC1", "note": "(single isomer, unassigned) [Example 2c, 4-((4-Chloro-6-((2,6-dimethylpyridin-3-yl)(hydroxy)(1-methyl-1H-1,2,3-triazol-5-yl)methyl)-2-methoxyquinolin-3-yl)methyl)tetrahydro-2H-thiopyran 1,1-dioxide]", "values": [
      {"measurement": "Kd", "setting": "[1]; ThermoFluor Assay, Kd", "value": 110, "unit": "nM"}
    ]},
    {"smiles": "COc1nc2ccc(C(O)(c3ccc(C(F)(F)F)nc3)c3cncn3C)cc2c(C#N)c1CN1CCC(C(F)(F)F)CC1", "note": "(single isomer, unassigned) [Example 191c, 6-(Hydroxy(1-methyl-1H-imidazol-5-yl)(6-(trifluoromethyl)pyridin-3-yl)methyl)-2-methoxy-3-((4-(trifluoromethyl)piperidin-1-yl)methyl)quinoline-4-carbonitrile]", "values": [
      {"measurement": "Kd", "setting": "[1]; [4]", "value": 3.1, "unit": "nM"}
    ]},
    {"smiles": "COc1nc2ccc(C(O)(c3ccc(C)nc3C)c3cnnn3C)cc2c(Cl)c1OCc1ncccn1", "note": "(centres unmarked) [Example 66a, [4-Chloro-2-methoxy-3-(pyrimidin-2-ylmethoxy)quinolin-6-yl](2,6-dimethylpyridin-3-yl)(1-methyl-1H-1,2,3-triazol-5-yl)methanol]", "values": [
      {"measurement": "inhibition at 6 µM", "setting": "[2]", "value": -112, "unit": "%"}
    ]},
    {"smiles": "COc1nc2ccc(C(O)(c3ccc(C)nc3C)c3cnnn3C)cc2c(Cl)c1OCC1CC1(F)F", "note": "(single isomer, unassigned) [Example 72b, {4-Chloro-3-[(2,2-difluorocyclopropyl)methoxy]-2-methoxyquinolin-6-yl}(2,6-dimethylpyridin-3-yl)(1-methyl-1H-1,2,3-triazol-5-yl)methanol]", "values": [
      {"measurement": "RORγt (LBD) Reporter Assay, % inhibition @ 6 μM", "setting": "[2]", "value": 53, "unit": "%"}
    ]},
    {"smiles": "COc1nc2ccc(C(O)(c3ccc(C)nc3C)c3cnnn3C)cc2c(Cl)c1OC1CCOCC1", "note": "(centres unmarked) [Example 69a, [4-Chloro-2-methoxy-3-(tetrahydro-2H-pyran-4-yloxy)quinolin-6-yl](2,6-dimethylpyridin-3-yl)(1-methyl-1H-1,2,3-triazol-5-yl)methanol]", "values": [
      {"measurement": "inhibition at 6 µM", "setting": "[2]", "value": 57, "unit": "%"}
    ]},
    {"smiles": "COc1nc2ccc(C(O)(c3cnc(C)n3C)c3cnc(C)n3C)cc2c(Cl)c1OC1CCCN(C)C1", "note": "(single isomer, unassigned) [Example 51b, (4-Chloro-2-methoxy-3-{[1-methylpiperidin-3-yl]oxy}quinolin-6-yl)[bis(1,2-dimethyl-1H-imidazol-5-yl)]methanol]", "values": [
      {"measurement": "Kd", "setting": "[1]; [3]", "value": 3000, "unit": "nM"}
    ]},
    {"smiles": "COc1nc2ccc(C(O)(c3ccc(C)nc3C)c3cnnn3C)cc2c(Cl)c1OC1CCN(C)CC1", "note": "(single isomer, unassigned) [Example 65b, {4-Chloro-2-methoxy-3-[(1-methylpiperidin-4-yl)oxy]quinolin-6-yl}(2,6-dimethylpyridin-3-yl)(1-methyl-1H-1,2,3-triazol-5-yl)methanol]", "values": [
      {"measurement": "inhibition at 6 µM", "setting": "[2]", "value": 39, "unit": "%"}
    ]},
    {"smiles": "COc1nc2ccc(C(O)(c3ccc(C)nc3C)c3cnnn3C)cc2c(Cl)c1C(=O)N(C)C", "note": "(centres unmarked) [Example 148, 4-Chloro-6-[(2,6-dimethylpyridin-3-yl)(hydroxy)(1-methyl-1H-1,2,3-triazol-5-yl)methyl]-2-methoxy-N,N-dimethylquinoline-3-carboxamide]", "values": [
      {"measurement": "Kd", "setting": "[1]; [4]", "value": 1700, "unit": "nM"}
    ]},
    {"smiles": "COc1nc2ccc(C(O)(c3ccc(C)nc3C)c3cnnn3C)cc2c(Cl)c1C(=O)N1CCC(C(F)(F)F)CC1", "note": "(centres unmarked) [Example 83, (4-Chloro-2-methoxy-3-{[4-(trifluoromethyl)piperidin-1-yl]carbonyl}quinolin-6-yl)(2,6-dimethylpyridin-3-yl)(1-methyl-1H-1,2,3-triazol-5-yl)methanol]", "values": [
      {"measurement": "Kd", "setting": "[1]; [3]", "value": 360, "unit": "nM"}
    ]},
    {"smiles": "COc1nc2ccc(C(O)(c3ccc(C)nc3C)c3cnnn3C)cc2c(Cl)c1C", "note": "(single isomer, unassigned) [Example 12b, (4-Chloro-2-methoxy-3-methylquinolin-6-yl)(2,6-dimethylpyridin-3-yl)(1-methyl-1H-1,2,3-triazol-5-yl)methanol]", "values": [
      {"measurement": "RORγt (LBD) Reporter Assay, % inhibition @ 6 μM", "setting": "[2]", "value": 23, "unit": "%"}
    ]},
    {"smiles": "COc1nc2ccc(C(O)(c3ccc(C)nc3C)c3cnnn3C)cc2c(Cl)c1C1CCCC1", "note": "(centres unmarked) [Example 136a, (4-Chloro-3-cyclopentyl-2-methoxyquinolin-6-yl)(2,6-dimethylpyridin-3-yl)(1-methyl-1H-1,2,3-triazol-5-yl)methanol]", "values": [
      {"measurement": "RORγt (LBD) Reporter Assay, % inhibition", "setting": "[2]", "value": 97, "unit": "%"}
    ]},
    {"smiles": "COc1nc2ccc(C(O)(c3ccc(C)nc3C)c3cnnn3C)cc2c(Cl)c1C(=O)NCC(F)(F)F", "note": "(centres unmarked) [Example 152, 4-Chloro-6-[(2,6-dimethylpyridin-3-yl)(hydroxy)(1-methyl-1H-1,2,3-triazol-5-yl)methyl]-2-methoxy-N-(2,2,2-trifluoroethyl)quinoline-3-carboxamide]", "values": [
      {"measurement": "Kd", "setting": "[1]; [4]", "value": 600, "unit": "nM"}
    ]},
    {"smiles": "COc1nc2ccc(C(O)(c3ccc(C)nc3C)c3cnnn3C)cc2c(Cl)c1CN1CCC(C(F)(F)F)CC1", "note": "(single isomer, unassigned) [Example 103b, (4-Chloro-2-methoxy-3-((4-(trifluoromethyl)piperidin-1-yl)methyl)quinolin-6-yl)(2,6-dimethylpyridin-3-yl)(1-methyl-1H-1,2,3-triazol-5-yl)methanol]", "values": [
      {"measurement": "inhibition at 6 µM", "setting": "[2]", "value": 90, "unit": "%"}
    ]},
    {"smiles": "COc1nc2ccc(C(O)(c3ccc(C)nc3C)c3cnnn3C)cc2c(Cl)c1C1CCCC1", "note": "(single isomer, unassigned) [Example 136b, (4-Chloro-3-cyclopentyl-2-methoxyquinolin-6-yl)(2,6-dimethylpyridin-3-yl)(1-methyl-1H-1,2,3-triazol-5-yl)methanol]", "values": [
      {"measurement": "RORγt (LBD) Reporter Assay, % inhibition", "setting": "[2]", "value": 76, "unit": "%"}
    ]},
    {"smiles": "COc1nc2ccc(C(O)(c3cncn3C)C3CCN(C(C)=O)CC3)cc2c(Cl)c1CC1CCOCC1", "note": "(centres unmarked) [Example 5a, 1-(4-((4-Chloro-2-methoxy-3-((tetrahydro-2H-pyran-4-yl)methyl)quinolin-6-yl)(hydroxy)(1-methyl-1H-imidazol-5-yl)methyl)piperidin-1-yl)ethanone]", "values": [
      {"measurement": "inhibition at 6 µM", "setting": "[2]", "value": 45, "unit": "%"}
    ]},
    {"smiles": "COc1nc2ccc(C(O)(c3cncn3C)C3CCN(C(C)=O)CC3)cc2c(Cl)c1CC1CCOCC1", "note": "(single isomer, unassigned) [Example 5b, 1-(4-((4-Chloro-2-methoxy-3-((tetrahydro-2H-pyran-4-yl)methyl)quinolin-6-yl)(hydroxy)(1-methyl-1H-imidazol-5-yl)methyl)piperidin-1-yl)ethanone]", "values": [
      {"measurement": "inhibition at 6 µM", "setting": "[2]", "value": 33, "unit": "%"}
    ]},
    {"smiles": "COc1nc2ccc(C(O)(c3ccc(C)nc3C)c3cnnn3C)cc2c(Cl)c1CN1CCC(n2cccn2)CC1", "note": "(single isomer, unassigned) [Example 105b, (3-((4-(1H-Pyrazol-1-yl)piperidin-1-yl)methyl)-4-chloro-2-methoxyquinolin-6-yl)(2,6-dimethylpyridin-3-yl)(1-methyl-1H-1,2,3-triazol-5-yl)methanol]", "values": [
      {"measurement": "RORγt (LBD) Reporter Assay, % inhibition @ 6 μM", "setting": "[2]", "value": 33, "unit": "%"}
    ]},
    {"smiles": "COc1nc2ccc(C(O)(c3ccc(C)nc3C)c3cnnn3C)cc2c(Cl)c1CN1CCC(n2cccn2)CC1", "note": "(single isomer, unassigned) [Example 105c, (3-((4-(1H-Pyrazol-1-yl)piperidin-1-yl)methyl)-4-chloro-2-methoxyquinolin-6-yl)(2,6-dimethylpyridin-3-yl)(1-methyl-1H-1,2,3-triazol-5-yl)methanol]", "values": [
      {"measurement": "RORγt (LBD) Reporter Assay, % inhibition @ 6 μM", "setting": "[2]", "value": 87, "unit": "%"}
    ]},
    {"smiles": "COc1nc2ccc(C(O)(c3ccc(C)nc3C)c3cnnn3C)cc2c(Cl)c1CC1CC1", "note": "(single isomer, unassigned) [Example 14c, (4-Chloro-3-(cyclopropylmethyl)-2-methoxyquinolin-6-yl)(2,6-dimethylpyridin-3-yl)(1-methyl-1H-1,2,3-triazol-5-yl)methanol]", "values": [
      {"measurement": "RORγt (LBD) Reporter Assay, % inhibition @ 6 μM", "setting": "[2]", "value": 98, "unit": "%"}
    ]},
    {"smiles": "COc1nc2ccc(C(O)(c3ccc(C)nc3C)c3cnnn3C)cc2c(Cl)c1CC(C)C", "note": "(single isomer, unassigned) [Example 133b, (4-Chloro-3-isobutyl-2-methoxyquinolin-6-yl)(2,6-dimethylpyridin-3-yl)(1-methyl-1H-1,2,3-triazol-5-yl)methanol]", "values": [
      {"measurement": "RORγt (LBD) Reporter Assay, % inhibition", "setting": "[2]", "value": 90, "unit": "%"}
    ]},
    {"smiles": "COc1nc2ccc(C(O)(c3ccc(C)nc3C)c3cnnn3C)cc2c(Cl)c1C(=O)N1CC(F)(F)C1", "note": "(centres unmarked) [Example 153, {4-Chloro-3-[(3,3-difluoroazetidin-1-yl)carbonyl]-2-methoxyquinolin-6-yl}(2,6-dimethylpyridin-3-yl)(1-methyl-1H-1,2,3-triazol-5-yl)methanol]", "values": [
      {"measurement": "Kd", "setting": "[1]; [4]", "value": 3000, "unit": "nM"}
    ]}
  ]
}
